Key:
mouse intestinal crypts = test: Mouse intestinal organoid culture; type: cell-based; details: 1 mg/ml antibody added to fully supplemented EGR media
Description: Culture of mouse intestinal crypts. Mouse intestinal crypts were isolated and cultured as described by Sato et al (6). In brief, crypts were isolated, resuspended in Matrigel (BD Biosciences) and plated out in 24-well plates. The basal culture medium (advanced Dulbecco's modified Eagle medium/F12 supplemented with penicillin/streptomycin, 10 mmol/L HEPES, Glutamax, 1×N2, 1×B27 (all from Invitrogen), and 1 mmol/L N-acetylcysteine (Sigma)) was overlaid containing the following growth factors; Epidermal Growth Factor at 50 ng/ml (Life Technologies), Gremlin1 at 100 ng/ml (R and D), R-spondin1 at 500 ng/ml (R and D) [EGR media]. Anti-Grem1 antibody (UCB) was used at a concentration of 1 mg/ml. The media was changed every two days.
A mouse organoid culture was used to assess effects of an anti-GREM1 antibody. Successful intestinal epithelial organoid culture is dependent on media supplementation of exogenous BMP antagonist.
Approximately 60% of crypts formed organoids in media fully supplemented with recombinant epidermal growth factor (E), Grem1 (G) and R-Spondin1, (R) (EGR media). Culture success rate dropped to less than 2% at 7 days in media lacking recombinant Grem1 (ER media).

[1] = system: intestinal epithelial pSMAD1,5 signalling; test: Western blot of intestinal epithelial pSMAD1,5 in treated Vil1-Grem1 animals; type: in vivo, mouse
Protocol: Western blotting. Isolation of colon epithelium cells was carried out by incubating a 2 cm long piece of tissue with 30 mM EDTA for 2 h with agitation at 4° C. Pelleted epithelial cells were lysed RIPA lysis buffer with the addition of protease inhibitors (Complete Mini, Roche) and phosphatase inhibitors (PhosSTOP, Roche). All lysates were quantified using the BCA assay (Thermo Scientific), […] was diluted in an appropriate amount of 4× loading dye (Invitrogen) and denatured at 95° C. for 5 minutes. Western blotting was done with the NuPAGE Gel system, (Invitrogen) according to manufacturer's protocol. Briefly, denatured lysates were loaded onto a 4-12% gel and run at 100 V for at least 2 hours. The gels were transferred onto PVDF membrane (Immobilon P, Millipore) in a semi-dry tank (120 mA for at least 2 hours) and blocked by incubating for 1 hour at room temperature in TBS containing 10% milk (Marvel). […] After further washes, the blots were incubated in ECL reagents (GE healthcare) and chemiluminescence was detected by chemiluminescence film (GE Healthcare).
Epithelial BMP activity can be measured by phosphorylation of the SMAD 1,5,8 intracellular signalling transducers.
The aberrant epithelial Grem1 expression in Vil1-Grem1 mice suppressed physiological intestinal BMP pathway activity with reduction in detected pSMAD1,5 protein levels detected by Western blot.

Vil1-Grem1;Apc^Min mice = test: Vil1-Grem1;Apc^Min mouse polyposis model (survival); type: in vivo
Vil1-Grem1 mice [2] = test: AOM mutagenesis in Vil1-Grem1 mice; type: in vivo, mouse; details: 30 mg/kg weekly antibody for three weeks before and after three 10 mg/kg weekly AOM doses
Description: Aberrant epithelial Grem1 expression in Vil1-Grem1 mice promotes an epithelial stem/progenitor cell phenotype (Davis et al., 2015), and we hypothesised that these cells would be susceptible to somatic mutation. We used azoxymethane (AOM) administration to examine the effect of a mutagenic insult on untreated Vil1-Grem1 and anti-Grem1 treated Vil1Grem1 mice. AOM is a well-documented mutagen widely utilised in murine models to recapitulate spontaneous CRC carcinogenesis (Neufert and Neurath, 2007).
Mice were treated with three subcutaneous doses of 30 mg/kg weekly anti-Grem1 antibody followed by three intraperitoneal doses of 10 mg/kg weekly azoxymethane (AOM, Sigma) or vehicle (saline) prior to a further three weeks of 30 mg/kg weekly anti-Grem1 antibody. Treatment commenced at or from the age of 90 days onwards, which is late enough in the Vil1-Grem1 disease process to ensure expansion of the progenitor cell population and subsequent formation of ectopic crypt foci.

[3] = system: Foxl1, Wnt5A and Wnt2B expression; test: In situ hybridisation of Foxl1 and Wnt ligands in Vil1-Grem1 villus stroma; type: in vivo, mouse
Protocol: To investigate the source of Wnt ligand expression in the villus ectopic crypts in antibody treated and untreated Vil1-Grem1 mice (n=4) we used Foxl1 in situ hybridization (ISH) to identify sub-epithelial telocyte cells as described by Shoshkes-Carmel et al. (2018). Foxl1 expression levels were quantified using the HALO image analysis software.
Paraffin blocks were sectioned (thickness=[…]) using DEPC (Sigma) treated H2O and sections were baked for 2 hours at 60° C. Tissue was deparaffinised and treated with RNAscope Hydrogen Peroxide (ACD 322335) for 10 min at room temperature (RT). Antigen retrieval was performed for 15 minutes using RNAscope 1× Target Retrieval Reagents (1:10 ACD 322000) at 100° C. Samples were treated with RNAscope Protease Plus (ACD 322331) for 30 minutes at 40° C. using an HybEZ Hybridization System (ACD). Probes were incubated for 2 h at 40° C. Probes used were as follows: LGR4 (ACD 318321), LGR5 (ACD 312171), FZD5 (ACD 404911), FZD7 (ACD 534101), WNT2B (ACD 405031), WNT5A (ACD 316791), WNT5A-C3 (ACD, 316791-C3) and FOXL1 (ACD 407401). Slides were counter-stained using Haematoxylin […] or DAPI (Fluorescent).
Slides were scanned at 20× magnification using an Aperio CS2 Digital Pathology Scanner (Leica Biosystems). […] Foxl1 expression levels were quantified using the HALO image analysis platform (PerkinElmer) and expressed as % of DAB staining per area. […]

Vil1-Grem1 mice [4] = test: Vil1-Grem1 mouse polyposis model (phenotype, survival); details: for median survival: vehicle 242 days

Q: What does the source list for “Ab7326: allosteric inhibitory anti-Gremlin-1 antibody from a naïve human library; CDRs SEQ ID NOS 4 to 9; mouse IgG1 in mouse experiments”?
A: Intestinal organoid culture success (mouse intestinal crypts): prevented successful intestinal organoid culture; Restoration of intestinal epithelial pSMAD1,5 signalling ([1]; 10 mg/kg weekly subcutaneous): not; Restoration of intestinal epithelial pSMAD1,5 signalling ([1]; 30 mg/kg weekly subcutaneous): able to restore; median survival (Vil1-Grem1;Apc^Min mice; 15 mg/kg weekly, from 21 days of age, vehicle 45 days): 76.5 days; mean lifespan (Vil1-Grem1;Apc^Min mice; 30 mg/kg twice weekly from 3 weeks of age, untreated VG-min 46 days): 108 days; median survival (Vil1-Grem1;Apc^Min mice; 30 mg/kg weekly, from 21 days of age, ongoing experiment): 108 days; median survival (Vil1-Grem1;Apc^Min mice; 60 mg/kg weekly, from 21 days of age, ongoing experiment): 111 days; median survival (Vil1-Grem1;Apc^Min mice; late stage: treatment at or from the age of 35 days, antibody 30 mg/kg weekly, 5FU two i.p. daily doses of 40 mg/kg, no treatment 45 days): 49.5 days; Increased tumour burden and reduced survival of AOM-treated animals (Vil1-Grem1 mice [2]): partially abrogated; Stromal Wnt ligand (5A and 2B) expression (ISH) ([3]; antibody-treated Vil1-Grem1 mice): abrogated Wnt ligand expression; Villus stromal Foxl1 expression (ISH) ([3]; antibody-treated Vil1-Grem1 vs WT p=0.4864): restored Foxl1 expression levels; Villus ectopic crypt formation and cell fate determination (immunohistochemical staining) (Vil1-Grem1 mice [4]; 30 mg/kg twice weekly for 6 weeks): reversal of villus ectopic crypt formation and deranged cell fate determination; Pan-intestinal polyposis phenotype (Vil1-Grem1 mice [4]; 30 mg/kg twice weekly subcutaneous for 6 weeks): highly significant abrogation; Animal lifespan (Vil1-Grem1 mice [4]; 30 mg/kg weekly subcutaneous from 6 weeks of age, prolonged dosing): significantly prolongs animal lifespan; Adverse events (Vil1-Grem1 mice [4]; Grem1 initiated polyposis models, animals treated for more than 400 days): No consistent adverse events have been observed; median survival (Vil1-Grem1 mice [4]; early stage treatment (42 days), 30 mg/kg weekly): 540 days; median survival (Vil1-Grem1 mice [4]; established polyposis, 30 mg/kg weekly from 5 months): 477 days; Vil1-Grem1 intestinal phenotype at timed sacrifice (Vil1-Grem1 mice [4]; established polyposis, over 4 weeks of treatment): reversion of the Vil1-Grem1 intestinal phenotype; median survival (Vil1-Grem1 mice [4]; late-stage treatment (120 days), 30 mg/kg weekly): 519 days
